In the NIST ThermoML archive (doi:10.1021/acs.jced.8b01146):
Several values for one entry are separate records, joined by “and”; a condition that tells them apart may be missing. Equal values may be shown once.

How the values were obtained:
[1] = xn = mol fraction of the nth substance listed; conditions: 100 kPa, Liquid, Vibrating tube method
[2] = excess molar enthalpy (molar enthalpy of mixing); xn = mol fraction of the nth substance listed; conditions: 100 kPa, Liquid, Calvet calorimetry

CC1CCC(=O)O1 (stereo unspecified) [γ-valerolactone] + O
Conditions	excess molar enthalpy, [2]	mass density, [1]
288.15 K, x1 = 0.000948	-0.00117 kcal/mol	999.61 kg/m3
288.15 K, x1 = 0.001895	-0.0023 kcal/mol	1000.12 kg/m3
288.15 K, x1 = 0.00284	-0.00341 kcal/mol	1000.62 kg/m3
288.15 K, x1 = 0.003783	-0.00447 kcal/mol	1001.12 kg/m3
288.15 K, x1 = 0.004724	-0.00551 kcal/mol	1001.62 kg/m3
288.15 K, x1 = 0.005663	-0.00652 kcal/mol	1002.11 kg/m3
298.15 K, x1 = 0.000947	-0.000872 kcal/mol	997.5 kg/m3
298.15 K, x1 = 0.001893	-0.00171 kcal/mol	997.952 kg/m3 and 997.948 kg/m3
298.15 K, x1 = 0.002836	-0.00252 kcal/mol	998.397 kg/m3
298.15 K, x1 = 0.002837	-0.00253 kcal/mol	998.399 kg/m3
298.15 K, x1 = 0.003778	-0.00331 kcal/mol	998.844 kg/m3
298.15 K, x1 = 0.003779	-0.00331 kcal/mol	998.843 kg/m3
298.15 K, x1 = 0.004718	-0.00407 kcal/mol	999.282 kg/m3
298.15 K, x1 = 0.004719	-0.00406 kcal/mol	999.28 kg/m3
298.15 K, x1 = 0.005658	-0.00479 kcal/mol and -0.00481 kcal/mol	999.717 kg/m3 and 999.723 kg/m3
308.15 K, x1 = 0.000947	-0.000574 kcal/mol	994.435 kg/m3
308.15 K, x1 = 0.001892	-0.00113 kcal/mol	994.839 kg/m3
308.15 K, x1 = 0.001893	-0.00113 kcal/mol	994.839 kg/m3
308.15 K, x1 = 0.002835	-0.00165 kcal/mol	995.239 kg/m3
308.15 K, x1 = 0.002836	-0.00165 kcal/mol	995.239 kg/m3
308.15 K, x1 = 0.003777	-0.00215 kcal/mol	995.637 kg/m3
308.15 K, x1 = 0.003778	-0.00215 kcal/mol	995.634 kg/m3
308.15 K, x1 = 0.004716	-0.00262 kcal/mol	996.023 kg/m3
308.15 K, x1 = 0.004718	-0.00261 kcal/mol	996.023 kg/m3
308.15 K, x1 = 0.005656	-0.00306 kcal/mol and -0.00308 kcal/mol	996.412 kg/m3 and 996.415 kg/m3
318.15 K, x1 = 0.000946	-0.000275 kcal/mol	990.573 kg/m3
318.15 K, x1 = 0.000947	-0.000275 kcal/mol	990.572 kg/m3
318.15 K, x1 = 0.001891	-0.000526 kcal/mol	990.933 kg/m3
318.15 K, x1 = 0.001892	-0.000526 kcal/mol	990.933 kg/m3
318.15 K, x1 = 0.002835	-0.000758 kcal/mol	991.289 kg/m3
318.15 K, x1 = 0.003776	-0.00097 kcal/mol	991.639 kg/m3
318.15 K, x1 = 0.003777	-0.000966 kcal/mol	991.641 kg/m3
318.15 K, x1 = 0.004716	-0.00115 kcal/mol and -0.00114 kcal/mol	991.985 kg/m3 and 991.983 kg/m3
318.15 K, x1 = 0.005655	-0.00131 kcal/mol and -0.00132 kcal/mol	992.329 kg/m3 and 992.332 kg/m3

CCC1CCC(=O)O1 (stereo unspecified) [2(3H)-furanone, 5-ethyldihydro-] + O
Conditions	excess molar enthalpy, [2]	mass density, [1]
288.15 K, x1 = 0.000808	-0.0011 kcal/mol	999.463 kg/m3 and 999.462 kg/m3
288.15 K, x1 = 0.001615	-0.00217 kcal/mol	999.823 kg/m3
288.15 K, x1 = 0.001616	-0.00217 kcal/mol	999.824 kg/m3
288.15 K, x1 = 0.002421	-0.00322 kcal/mol	1000.19 kg/m3
288.15 K, x1 = 0.002422	-0.00321 kcal/mol	1000.19 kg/m3
288.15 K, x1 = 0.003226	-0.00418 kcal/mol	1000.55 kg/m3 and 1000.54 kg/m3
288.15 K, x1 = 0.004029	-0.00515 kcal/mol	1000.9 kg/m3
288.15 K, x1 = 0.004831	-0.00608 kcal/mol	1001.26 kg/m3
288.15 K, x1 = 0.004832	-0.00607 kcal/mol	1001.26 kg/m3
298.15 K, x1 = 0.000808	-0.000746 kcal/mol and -0.000743 kcal/mol	997.357 kg/m3 and 997.355 kg/m3
298.15 K, x1 = 0.001615	-0.00146 kcal/mol	997.666 kg/m3
298.15 K, x1 = 0.002421	-0.00215 kcal/mol	997.974 kg/m3
298.15 K, x1 = 0.002422	-0.00215 kcal/mol	997.975 kg/m3
298.15 K, x1 = 0.003226	-0.00277 kcal/mol and -0.00278 kcal/mol	998.276 kg/m3
298.15 K, x1 = 0.004029	-0.00339 kcal/mol and -0.0034 kcal/mol	998.58 kg/m3
298.15 K, x1 = 0.004831	-0.004 kcal/mol	998.888 kg/m3
298.15 K, x1 = 0.004832	-0.00401 kcal/mol	998.888 kg/m3
308.15 K, x1 = 0.000809	-0.000394 kcal/mol	994.296 kg/m3
308.15 K, x1 = 0.001616	-0.000758 kcal/mol	994.558 kg/m3
308.15 K, x1 = 0.001617	-0.000762 kcal/mol	994.559 kg/m3
308.15 K, x1 = 0.002422	-0.00109 kcal/mol	994.819 kg/m3
308.15 K, x1 = 0.002423	-0.0011 kcal/mol	994.819 kg/m3
308.15 K, x1 = 0.003227	-0.00141 kcal/mol	995.082 kg/m3
308.15 K, x1 = 0.003228	-0.0014 kcal/mol	995.075 kg/m3
308.15 K, x1 = 0.004031	-0.00169 kcal/mol	995.334 kg/m3
308.15 K, x1 = 0.004032	-0.00169 kcal/mol	995.334 kg/m3
308.15 K, x1 = 0.004834	-0.00193 kcal/mol	995.586 kg/m3
308.15 K, x1 = 0.004835	-0.00196 kcal/mol	995.586 kg/m3
318.15 K, x1 = 0.000808	-4.92e-05 kcal/mol	990.434 kg/m3
318.15 K, x1 = 0.001615	-7.07e-05 kcal/mol	990.653 kg/m3
318.15 K, x1 = 0.001616	-7.12e-05 kcal/mol	990.654 kg/m3
318.15 K, x1 = 0.002421	-6.91e-05 kcal/mol	990.873 kg/m3
318.15 K, x1 = 0.002422	-6.79e-05 kcal/mol	990.873 kg/m3
318.15 K, x1 = 0.003226	-4.04e-05 kcal/mol	991.088 kg/m3
318.15 K, x1 = 0.003227	-4.28e-05 kcal/mol	991.089 kg/m3
318.15 K, x1 = 0.004029	8.13e-06 kcal/mol	991.301 kg/m3
318.15 K, x1 = 0.00403	1.51e-05 kcal/mol	991.301 kg/m3
318.15 K, x1 = 0.004832	8.6e-05 kcal/mol	991.512 kg/m3
318.15 K, x1 = 0.004833	9.01e-05 kcal/mol	991.512 kg/m3
